These results are taken from publication PMC10931479, “Exploration of hypoglycemic peptides from porcine collagen based on network pharmacology and molecular docking” (PLOS ONE, 2024).

“Also recorded” adds a separate entry of the source.

One assay has as its system α-glucosidase. Kind of assay: α-Glucosidase activity inhibition test (pNPG). Format: biochemical. The conditions noted are these: 0.1 to 0.7 mg/mL; in vitro; comparison with acarbose where stated. The method, then: The samples were prepared at different concentrations (1-7 mg/mL), and the following compounds were prepared: α-glucosidase (0.1 Ua), PBS (pH 6.8, 0.05 mol/L), PNPG (2.5 mmol/L), and Na2CO3 (1 mol/L). The control, sample blank, and sample groups were incubated at their appropriate temperature and time, and the absorbance at 405 nm was measured using a microplate reader. The inhibitory activity was calculated using Eq (2). The inhibition rate of α-glucosidase was solved according to the concentration of different mass samples. The IC50 values were calculated based on the fitting curves. […] All experiments were conducted in triplicate and the data are expressed as the mean ± standard deviation (SD). Statistical analysis was performed using SPSS 27.0 software with Duncan's multiple and one-way ANOVA tests to determine the differences among the mean values. The mapping was done using prism and bioinformatics tools (http://www.bioinformatics.com.cn/).
Turning to “NWYR [tetrapeptide from in silico trypsin hydrolysis of porcine collagen BAX02569.1, synthesized by solid-phase synthesis]”, the “Inhibition of α-glucosidase in words” value is “significantly inhibited α-glucosidase activity in a concentration-dependent manner; also recorded: no significant difference between them and acarbose; also recorded: the inhibitory effect of NWYR was stronger”.

System in a further assay: not given
Assay: not given
The settings on record: peptides from bovine skin collagen; cited from earlier work. The text has this: (§1) At present, dietary proteins isolated from black beans, fermented soybean, balsam pear, and other sources have been identified as having anti-diabetic peptide properties. In vitro experiments have confirmed the hypoglycemic effects of many of these peptides, with some outperforming clinical drugs. […] He L, et al. isolated five peptides (GPVGPPG, GPPGPT, APGGAP, FGPGP, and GPVG) from bovine skin colla ...
For the substance “GPPGPT [peptide from bovine skin collagen]”, the Anti-diabetic properties entry is listed as “exhibited anti-diabetic properties”.

In the case of “APGGAP [peptide from bovine skin collagen]”, the Anti-diabetic properties result is recorded as “exhibited anti-diabetic properties”.

On to “FGPGP [peptide from bovine skin collagen]”, for which the Anti-diabetic properties result is listed as “exhibited anti-diabetic properties”.

Consider “GPVG [peptide from bovine skin collagen]”, for which the Anti-diabetic properties entry was “exhibited anti-diabetic properties”.

As for “GPVGPPG [peptide from bovine skin collagen]”, the Anti-diabetic properties result is recorded as “exhibited anti-diabetic properties”.

A further assay deals with α-glucosidase.
Assay: not given
The conditions noted are these: peptides from silkworm pupae; cited from earlier work.
From the text: as §1
With SQSPA [peptide from silkworm pupae], the “Suppression of α-glucosidase activity” value is given as “can suppress α-glucosidase activity”.

As to NSPR [peptide from silkworm pupae], the “Suppression of α-glucosidase activity” value is “can suppress α-glucosidase activity”.

As for QPGR [peptide from silkworm pupae], the “Suppression of α-glucosidase activity” value is “can suppress α-glucosidase activity”.

Turning to QPPT [peptide from silkworm pupae], the “Suppression of α-glucosidase activity” value is recorded as “can suppress α-glucosidase activity”.
